Measured values reported in patent US5686492A, “Disubstituted p-fluorobenzenesulfonamides” (Schering Aktiengesellschaft, priority 1994, dated 1997).

Experiments:
[1] = 19F NMR line width / signal intensity of the measuring fluorine atom; format: physicochemical; conditions: in comparison to prior art compound (compound of Example 2 with Y meaning hydrogen); for line width smaller by: signal of the measuring fluorine atom
Source text: In comparison to the structurally closest compounds of the prior art, the compounds according to the invention show clearly thinner signals for the measuring fluorine atom, so that an identically intensive signal is obtained with a smaller dosage.

histamine release = histamine release in comparison to structurally closest previously-known compound; format: in vivo; conditions: multiple of the dosage of the previously-known comparison substance (compound of Example 2 with Y meaning hydrogen)
Source text: (§1) An equally high (undesirable) histamine release is observed with the compound of Example 2 only with the 30-fold dosage of the above-mentioned previously-known comparison substance.

[2] = compatibility in comparison to structurally closest previously-known compound; format: in vivo; conditions: than structurally closest previously-known compound (compound of Example 2 with Y meaning hydrogen)
Source text: as §1

Compound | signal increase [1] | line width smaller by [1] | dosage giving equally high (undesirable) histamine release (histamine release) | compatibility higher by [2]
O=C(Cc1cc(NS(=O)(=O)CC(F)(F)F)cc(CC(=O)NC(CO)C(O)CO)c1F)NC(CO)C(O)CO (centres unmarked) [Example 6] | ~50% | 25% | – | –
O=C(O)CCS(=O)(=O)Nc1ccc(F)c(CC(=O)NC(CO)C(O)CO)c1C(F)(F)F (centres unmarked) [Example 2, 3-{N-[4-Fluoro-2-trifluoromethylphenyl-3-acetic acid-N-(1-hydroxy-2,3-dihydroxypropyl)-amide]-sulfamoyl}-propionic acid] | – | 12% | 30 -fold | 50%
